# In US20260109951A1, “METHODS AND COMPOSITIONS FOR INDUCING HEMATOPOIETIC CELL DIFFERENTIATION” (FATE THERAPEUTICS, INC., priority 2022, published 2026):
# B1: BMP4: bone morphogenetic protein, cytokine, BMP activator (protein, UniProt P12644 293-408, looked up)
# Bone morphogenetic protein 4: SPKHHSQRARKKNKNCRRHSLYVDFSDVGWNDWIVAPPGYQAFYCHGDCPFPLADHLNSTNHAIVQTLVNSVNSSIPKACCVPTELSAISMLYLDEYDKVVLKNYQEMVVEGCGCR
# Assays:
# tumor = experiment: anti-tumor efficacy of treated, cryopreserved iNK cells; format: cell-based; conditions: treated and cryopreserved cells versus untreated or control cells, FIG. 15
# Description: Cells that have been treated with CH-223191 were cryopreserved in liquid nitrogen long term. To assess recovery of the cells from cryopreservation, the cells were thawed and cultured in B0 medium for a period of 7 days and cell counts taken during the course of this culture. […] Further, cells that have been treated with CH-223191 and cryopreserved in liquid nitrogen were further assessed for function in vitro and in vivo.
# iPSC-derived NK cells = experiment: iNK expansion by co-culture with IL21 and 41BBL expressing irK562 feeder cells; format: cell-based, human; conditions: about 3 μM added at day 2 of about 7 day expansion, versus without AhR inhibitor, FIG. 14
# Description: To modulate effector cell activation during the cell expansion stage of iPSC differentiation, an AhR (aryl hydrocarbon receptor) inhibitor was discovered to improve effector cell function, including anti-tumor efficacy. iPSCs were differentiated into definitive HE cells as previously described, and were subsequently differentiated into pre-expansion NK cells, at which point they were expanded by co-culture with IL21 and 41BBL expressed by irK562 feeder cells for about 7 days. An exemplary AhR inhibitor, CH-223191 (among others such as UM729, UM171, SR1), was added to the expansion culture at day 2 with a final concentration of about 3 μM to potentiate expansion signals.
# [1] = tested on: hiPSC-derived CD34+ HE cells; experiment: hiPSC monolayer differentiation to definitive HE, flow cytometric analysis of D10 cells; format: cell-based, human
# Description: To initiate differentiation towards the hematopoietic lineage, hiPSCs were seeded as a monolayer on Day (D) 0 in the maintenance medium and allowed to adhere and expand for about 24 hours. The monolayers were maintained until around D5-D6 at which point they were dissociated into single cells and seeded as a low-density monolayer until differentiation at around D10. The D10 dissociated single cell population was sorted by FACS for further analysis and marker profiling for definitive HE characterization. Alternatively, or in addition thereto, as disclosed herein, one or more of anti-CD82, anti-CD34, and anti-CD43 antibodies were used for cell sorting the D10 cell population to obtain definitive HE cells comprising a phenotype of CD82^+, CD34^+CD82^+ or CD34^+CD43^−CD82^+, which were optionally cryopreserved in cryopreservation medium or continued with effector cell differentiation.
# The flow cytometric analysis of D10 cells differentiated under control conditions was compared to cells differentiated under cytokine conditions that includes BMP4. RUNX1 is a transcription factor expressed in the cell and believed to be mostly associated with HE identity. The cells were gated on single/live events. The […] cells and the […] cells were then stained with anti-human antibodies and analyzed by LEGENDScreen™. […]
# TNF-α production = conditions: previously shown; cited from earlier work
molecule,measurement,setting,value
Cc1ccccc1N=Nc1ccc(NC(=O)c2ccnn2C)c(C)c1 [CH-223191],anti-tumor efficacy,tumor,enhanced anti-tumor efficacy at endpoint
same,fold expansion and yield of differentiated NK cells,iPSC-derived NK cells,greater fold expansion and yield of differentiated NK cells
"Fc1ccc(-c2nc(C3CCNCC3)sc2-c2ccnc(NC3CC3)n2)cc1 [DBM1285, cyclopropyl-{4-[4-(4-fluorophenyl)-2-piperidin-4-yl-thiazol-5-yl]pyrimidin-2-yl}amine]",maintenance of CD82 expression (CD82+RUNX1+ subpopulation of CD34+ HE cells),[1]; p38 MAPK inhibitor added to composition for obtaining definitive HE cells from iPSC,beneficial to maintain CD82 expression
same,TNF-α production,TNF-α production,inhibit TNF-α production
B1,specification of RUNX1+ HE,"[1]; D10 cells, cytokine conditions including BMP4 versus control conditions, FIG. 1",specification of RUNX1^+ HE is cytokine driven
